{
  "source": "paper PMC4076215",
  "about": "“Nickel(II) Complex of Polyhydroxybenzaldehyde N4-Thiosemicarbazone Exhibits Anti-Inflammatory Activity by Inhibiting NF-κB Transactivation” (PLoS ONE, 2014)",
  "key": {"RAW264.7 cells": {"tested_on": "RAW264.7 cells", "assay": "Cell proliferation (MTT) assay, RAW264.7", "conditions": "RAW264.7 cells, 48 h treatment", "protocol": "A total number of 1.0×10^4 cells per well were seeded into a 96-well plate and incubated overnight at 37°C in 5% CO2. The next day, the cells were treated with a two-fold serial dilution of compounds. MTT assays were performed as described [27]. After 48 h, (4,5-dimethylthiazol-2-yl-2,5-diphenyltetrazoliumbromide) was added at 2 mg/ml. After 3 h of incubation at 37°C in 5% CO2, DMSO was added to dissolve the formazan crystals. The plates were then read in Chameleon multitechnology microplate reader (Hidex, Turku, Finland) at 570 nm absorbance. The ratio of the absorbance of treated cells to the absorbance of DMSO-treated control cells was determined as percentage cell viability.\nTo examine whether synthesized Ni(II) thiosemicarbazone ligands or Ni(II)-phosphine complexes were cytotoxic, we treated RAW264.7 (leukemic monocyte macrophage) and HeLa S3 (cervical adenocarcinoma) cells with these compounds for 48 h. The cell viability was determined with MTT assays [33]."}, "[1]": {"assay": "Liver functional test (serum) after oral dosing", "assay_type": "in vivo, C57BL/6 mice", "conditions": "after two weeks", "experimental": "Liver functional test. C57BL/6 mice at age 8-12 weeks old were administrated orally with control PBS or with various concentrations (125 mg/kg, 250 mg/kg and 500 mg/kg) of complex 5. n= 6 (3 male and 3 female mice)/group. After two weeks, sera were collected from the mice for liver functional test.\nShown were mean ± SD. TBIL: Total Bilirubin, BC: Conjugated\nBilirubin, ALP: Alkaline Phophatase, ALT: Alanine Aminotransferase, AST: Aspartate Transaminase, GGT: G-Glutamyl Transferase."}, "[2]": {"tested_on": "IκBα degradation and p65 nuclear translocation", "assay": "Immunoblot of cytoplasmic/nuclear extracts, LPS-stimulated RAW264.7", "assay_type": "cell-based", "conditions": "RAW264.7, pretreated 4 h, LPS stimulation", "experimental": "Cells were pretreated with or without of complex 5 (25 µg/ml or 50 µg/ml) for 4 h before treatment with LPS (10 ng/ml) or TNFα (10 ng/ml), for the indicated times. The cytoplasmic extracts were prepared by using the hypotonic lysis buffer (10 mM Tris, pH 7.5; 1.5 mM MgCl2; 10 mM KCl; 0.5 mM DTT; 0.5 mM PMSF; 1× Protease Inhibitor, 0.1% NP40) followed by incubation on ice for 20 min and centrifugation at 3k rpm at 4°C for 10 min. The supernatants were collected as cytoplasmic extracts. The nuclear pellets were resuspended in the whole cell lysis buffer (25 mM Tris, pH7.5; 420 mM NaCl; 1.5 mM MgCl2; 0.2 mM EDTA; 25% Glycerol; 0.5 mM DTT; 0.5 mM PMSF; 1× Protease Inhibitor). The nuclear extracts were then collected by centrifugation at 15 krpm at 4°C for 10 min. Immunoblotting was performed using antibodies against PARP (F-2, N-20), HSP90a (C-20), p65 (C-20), IκBα (C-21) and p-IκBα from Santa Cruz Biotech.\nNext, complex 5 was chosen for subsequent mechanistic study due to its potent inhibitory effect on NF-κB p65 nuclear translocation. […] Cytoplasmic and nuclear extracts were separated and analyzed with immunoblotting using anti-IκBα and anti-p65 antibodies (Figure 4A and 4B). […]\nFigure 4 Complex 5 blocks LPS-induced NF-κB nuclear translocation by inhibiting IκBα degradation. […] Western blot signal intensities were quantified using ImageJ software. […]"}, "ORAC antioxidant assay": {"assay": "ORAC antioxidant assay", "assay_type": "physicochemical", "experimental": "ORAC assay was performed based on reported procedures with slight modifications. Chemicals used such as fluorescein sodium salt, AAPH (2,2′-Azobis(2-methylpropionamidine) dihydrochloride), quercetin dehydrate and trolox ((±)-6-Hydroxy-2,5,7,8-tetramethylchromane-2-carboxylic acid) were purchased from Sigma-Aldrich. Compounds were diluted to a final concentration of 100 µg/ml, with total reaction volume of 200 µl. The assay was performed in a 96-well black microplate, with 25 µl of samples, standard (trolox), blank (solvent/PBS) or positive control (quercetin). Subsequently, 150 µl of working fluorescein solution was added to each well. The plate was incubated at 37°C for at least 5 min. Then, 25 µl of AAPH working solution was then added to the wells to make a total volume of 200 µl. […] Data were collected every 2 min for a duration of 2 h, and were analyzed by calculating the differences of area under fluorescence decay curve (AUC) of samples and blank. The values were expressed as Trolox equivalent (TE).\nROS may amplify inflammatory responses via up-regulation or activation of certain genes/transcription factors, such as NF-κB. […] Therefore, we conducted ORAC assays to investigate the antioxidant capacity of complex 5. The ORAC assay uses peroxyl radical as pro-oxidant and the antioxidant activity is quantified via area under curve (AUC). We included quercetin, a known antioxidant, as a positive control."}},
  "data": [
    {"smiles": "NC1=[S+][Ni-2]2([P+](c3ccccc3)(c3ccccc3)c3ccccc3)[O]c3c(O)cccc3C=[N+]2N1.[Cl-]", "note": "[complex 5, {2-[(2-Carbamothiolylhydrazin-1-ylidene-[kappa]2N1,S)methyl]-6-hydroxyphenolato-[kappa]O1}(triphenylphosphine-[kappa]P)nickel(II) chloride]", "values": [
      {"measurement": "IC50 (cell viability, MTT)", "setting": "RAW264.7 cells", "result": "28.63 ± 2.24", "unit": "mg/L"},
      {"measurement": "ALP (Alkaline Phophatase)", "setting": "[1]; 125 mg/kg oral", "result": 192.00, "unit": "IU/L"},
      {"measurement": "ALT (Alanine Aminotransferase)", "setting": "[1]; 125 mg/kg oral", "result": 69.00, "unit": "IU/L"},
      {"measurement": "AST (Aspartate Transaminase)", "setting": "[1]; 125 mg/kg oral", "result": 421.00, "unit": "IU/L"},
      {"measurement": "Albumin", "setting": "[1]; 125 mg/kg oral", "result": 18.00, "unit": "g/L"},
      {"measurement": "BC (Conjugated Bilirubin)", "setting": "[1]; 125 mg/kg oral", "result": "< 1", "unit": "µmol/L"},
      {"measurement": "GGT (G-Glutamyl Transferase)", "setting": "[1]; 125 mg/kg oral", "result": "< 3", "unit": "IU/L"},
      {"measurement": "Globulin", "setting": "[1]; 125 mg/kg oral", "result": 42.00, "unit": "g/L"},
      {"measurement": "TBIL (Total Bilirubin)", "setting": "[1]; 125 mg/kg oral", "result": 3.00, "unit": "µmol/L"},
      {"measurement": "Total Protein", "setting": "[1]; 125 mg/kg oral", "result": 60.00, "unit": "g/L"},
      {"measurement": "ALP (Alkaline Phophatase)", "setting": "[1]; 250 mg/kg oral", "result": 195.00, "unit": "IU/L"},
      {"measurement": "ALT (Alanine Aminotransferase)", "setting": "[1]; 250 mg/kg oral", "result": 70.00, "unit": "IU/L"},
      {"measurement": "AST (Aspartate Transaminase)", "setting": "[1]; 250 mg/kg oral", "result": 414.00, "unit": "IU/L"},
      {"measurement": "Albumin", "setting": "[1]; 250 mg/kg oral", "result": 17.00, "unit": "g/L"},
      {"measurement": "BC (Conjugated Bilirubin)", "setting": "[1]; 250 mg/kg oral", "result": "< 1", "unit": "µmol/L"},
      {"measurement": "GGT (G-Glutamyl Transferase)", "setting": "[1]; 250 mg/kg oral", "result": "< 3", "unit": "IU/L"},
      {"measurement": "Globulin", "setting": "[1]; 250 mg/kg oral", "result": 42.00, "unit": "g/L"},
      {"measurement": "TBIL (Total Bilirubin)", "setting": "[1]; 250 mg/kg oral", "result": 2.50, "unit": "µmol/L"},
      {"measurement": "Total Protein", "setting": "[1]; 250 mg/kg oral", "result": 59.00, "unit": "g/L"},
      {"measurement": "ALP (Alkaline Phophatase)", "setting": "[1]; 500 mg/kg oral", "result": 219.50, "unit": "IU/L"},
      {"measurement": "ALT (Alanine Aminotransferase)", "setting": "[1]; 500 mg/kg oral", "result": 70.00, "unit": "IU/L"},
      {"measurement": "AST (Aspartate Transaminase)", "setting": "[1]; 500 mg/kg oral", "result": "316.50 ± 78.49", "unit": "IU/L"},
      {"measurement": "Albumin", "setting": "[1]; 500 mg/kg oral", "result": 16.00, "unit": "g/L"},
      {"measurement": "BC (Conjugated Bilirubin)", "setting": "[1]; 500 mg/kg oral", "result": "< 1", "unit": "µmol/L"},
      {"measurement": "GGT (G-Glutamyl Transferase)", "setting": "[1]; 500 mg/kg oral", "result": "< 3", "unit": "IU/L"},
      {"measurement": "Globulin", "setting": "[1]; 500 mg/kg oral", "result": 37.50, "unit": "g/L"},
      {"measurement": "TBIL (Total Bilirubin)", "setting": "[1]; 500 mg/kg oral", "result": 3.00, "unit": "µmol/L"},
      {"measurement": "Total Protein", "setting": "[1]; 500 mg/kg oral", "result": 53.50, "unit": "g/L"},
      {"measurement": "IκBα degradation and p65 nuclear translocation (immunoblot)", "setting": "[2]", "result": "inhibited both IκBα degradation and p65 nuclear translocation"},
      {"measurement": "Antioxidant activity compared to quercetin", "setting": "ORAC antioxidant assay", "result": "low antioxidant activity"},
      {"measurement": "Antioxidant capacity, Trolox equivalent", "setting": "ORAC antioxidant assay", "result": "10.56±0.17", "unit": "µM TE per 100 µM"}
    ]}
  ]
}
